Where “and” joins values, the source holds several entries; their conditions need not be identical. Equal entries are not always repeated. Inconclusive results and toxic doses are left out. Rule for the calls: active = survival T/C of 150% or more; inactive = T/C below 125% in these data.
Tested on: P388 leukemia ip, CD2F1 mice, survival T/C
Test: NCI In Vivo Anticancer Drug Screen. Data for tumor model P388 Leukemia (intraperitoneal) in CD2F1 (CDF1) mice
Details: endpoint: median survival time, higher = longer survival
Method in brief: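 Mice carrying the transplanted tumor received test compound or vehicle. Survival was recorded in each group, and the value is the treated-group measurement divided by that of the vehicle-treated control group.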

[1] = dose: 60.0 mg/kg/injection, schedule: Q01DX005 (ip), vehicle: saline with Tween-80
[2] = dose: 120.0 mg/kg/injection, schedule: Q01DX005 (ip), vehicle: saline with Tween-80
[3] = dose: 240.0 mg/kg/injection, schedule: Q01DX005 (ip), vehicle: saline with Tween-80
[4] = dose: 50.0 mg/kg/injection, schedule: Q01DX009 (ip), vehicle: saline
[5] = dose: 100.0 mg/kg/injection, schedule: Q01DX009 (ip), vehicle: saline
[6] = dose: 50.0 mg/kg/injection, schedule: Q01DX009 (ip), vehicle: saline with Tween-80
[7] = dose: 100.0 mg/kg/injection, schedule: Q01DX009 (ip), vehicle: saline with Tween-80
[8] = dose: 200.0 mg/kg/injection, schedule: Q01DX009 (ip), vehicle: saline with Tween-80
[9] = dose: 50.0 mg/kg/injection, schedule: Q01DX009 (ip), vehicle: Klucel (hydroxypropylcellulose) (HPC)
[10] = dose: 100.0 mg/kg/injection, schedule: Q01DX009 (ip), vehicle: Klucel (hydroxypropylcellulose) (HPC)
[11] = dose: 50.0 mg/kg/injection, schedule: Q01DX005 (ip), vehicle: saline with Tween-80
[12] = dose: 100.0 mg/kg/injection, schedule: Q01DX005 (ip), vehicle: saline with Tween-80
[13] = dose: 200.0 mg/kg/injection, schedule: Q01DX005 (ip), vehicle: saline with Tween-80

Measured: T/C

COC1(OC)C2(Cl)CC(C(=O)O)C1(Cl)C(Cl)=C2Cl (stereo not given)
inactive: [1] 102 % of control | [2] 99 % of control | [3] 104 % of control

CC(C)CC1[NH][Sn]2([NH]C(CC(C)C)C(=O)[O]2)[O]C1=O (stereo not given)
inactive: dose: 6.25 mg/kg/injection, schedule: Q01DX005 (ip), vehicle: Klucel (hydroxypropylcellulose) (HPC) 104 % of control | dose: 12.5 mg/kg/injection, schedule: Q01DX005 (ip), vehicle: Klucel (hydroxypropylcellulose) (HPC) 105 % of control | dose: 25.0 mg/kg/injection, schedule: Q01DX005 (ip), vehicle: Klucel (hydroxypropylcellulose) (HPC) 104 % of control

O=C(Cl)C=Cc1ccc([N+](=O)[O-])cc1 (mixture of isomers)
inactive: [4] 104 % of control | [5] 94 % of control

O=C(CCl)c1ccc2c(c1)N(C(=O)COc1ccccc1)c1ccccc1S2
inactive: dose: 50.0 mg/kg/injection, schedule: Q01DX001 (ip), vehicle: Klucel (hydroxypropylcellulose) (HPC) 89 % of control | dose: 100.0 mg/kg/injection, schedule: Q01DX001 (ip), vehicle: Klucel (hydroxypropylcellulose) (HPC) 91 % of control | dose: 200.0 mg/kg/injection, schedule: Q01DX001 (ip), vehicle: Klucel (hydroxypropylcellulose) (HPC) 96 % of control

CC(C)(C)C(=O)OCCN(CCOC(=O)C(C)(C)C)C(=O)COC(=O)C(C)(C)C
inactive: [6] 96 % of control | [7] 94 % of control | [8] 100 % of control

C/C(=C(/O)c1ccccc1)c1nc2ccc(Cl)cc2[nH]c1=O
inactive: dose: 60.0 mg/kg/injection, schedule: Q01DX005 (ip), vehicle: Klucel + Tween-80 103 % of control | dose: 120.0 mg/kg/injection, schedule: Q01DX005 (ip), vehicle: Klucel + Tween-80 94 % of control | dose: 240.0 mg/kg/injection, schedule: Q01DX005 (ip), vehicle: Klucel + Tween-80 91 % of control

CN1C2C=CC(=O)C1C1C(=O)N(c3ccccc3)C(=O)C12 (stereo not given)
inactive: dose: 17.5 mg/kg/injection, schedule: Q01DX005 (ip), vehicle: Klucel (hydroxypropylcellulose) (HPC) 109 % of control and 121 % of control | dose: 35.0 mg/kg/injection, schedule: Q01DX005 (ip), vehicle: Klucel (hydroxypropylcellulose) (HPC) 113 % of control and 118 % of control | dose: 70.0 mg/kg/injection, schedule: Q01DX005 (ip), vehicle: Klucel (hydroxypropylcellulose) (HPC) 121 % of control

O=S1(=O)OC2(CCCCC2)c2ccccc21
inactive: [9] 106 % of control | [10] 108 % of control | dose: 200.0 mg/kg/injection, schedule: Q01DX009 (ip), vehicle: Klucel (hydroxypropylcellulose) (HPC) 108 % of control | dose: 400.0 mg/kg/injection, schedule: Q01DX009 (ip), vehicle: Klucel (hydroxypropylcellulose) (HPC) 109 % of control

CC(C)CC(=O)NC(C(=O)NC(C(=O)NC(CC(C)C)C(O)CC(=O)NC(C)C(=O)NC(CC(C)C)C(O)CC(=O)O)C(C)C)C(C)C (stereo not given)
inactive: dose: 6.25 mg/kg/injection, schedule: Q01DX009 (ip), vehicle: Klucel (hydroxypropylcellulose) (HPC) 102 % of control | [9] 98 % of control and 122 % of control and 87 % of control | [10] 90 % of control and 95 % of control

Nc1ccc(-c2csc(Nc3ccnc4cc(Cl)ccc34)n2)cc1
inactive: [11] 99 % of control | [12] 93 % of control | [13] 88 % of control

CCOC(=O)c1ccc(NC(=O)Nc2ccccc2OC)cc1
inactive: dose: 3.75 mg/kg/injection, schedule: Q01DX005 (ip), vehicle: Klucel (hydroxypropylcellulose) (HPC) 94 % of control | dose: 7.5 mg/kg/injection, schedule: Q01DX005 (ip), vehicle: Klucel (hydroxypropylcellulose) (HPC) 97 % of control | dose: 15.0 mg/kg/injection, schedule: Q01DX005 (ip), vehicle: Klucel (hydroxypropylcellulose) (HPC) 92 % of control | dose: 60.0 mg/kg/injection, schedule: Q01DX005 (ip), vehicle: Klucel (hydroxypropylcellulose) (HPC) 88 % of control | dose: 240.0 mg/kg/injection, schedule: Q01DX005 (ip), vehicle: Klucel (hydroxypropylcellulose) (HPC) 86 % of control

COC(=O)CC1CC(CCO)=C(C)C1=O (stereo not given)
inactive: dose: 60.0 mg/kg/injection, schedule: Q01DX005 (ip), vehicle: saline 101 % of control | dose: 120.0 mg/kg/injection, schedule: Q01DX005 (ip), vehicle: saline 99 % of control | dose: 240.0 mg/kg/injection, schedule: Q01DX005 (ip), vehicle: saline 100 % of control

O=c1cc(-c2ccccc2)c2cc3c(cc2[nH]1)oc1ccccc13
inactive: [1] 93 % of control | [2] 98 % of control | [3] 100 % of control

CCNC(C)(C)C(SSSC(c1ccc(C(F)(F)F)cc1)C(C)(C)NCC)c1ccc(C(F)(F)F)cc1 (stereo not given)
inactive: dose: 25.0 mg/kg/injection, schedule: Q04DX003 (ip), vehicle: saline 107 % of control | dose: 50.0 mg/kg/injection, schedule: Q04DX003 (ip), vehicle: saline 107 % of control | dose: 100.0 mg/kg/injection, schedule: Q04DX003 (ip), vehicle: saline 103 % of control

OC1COCC1O (stereo not given)
inactive: dose: 25.0 mg/kg/injection, schedule: Q01DX009 (ip), vehicle: Klucel (hydroxypropylcellulose) (HPC) 100 % of control | [9] 102 % of control | [10] 100 % of control

CC1=C(C(=O)CC(=O)C(=O)Nc2cc(Cl)c(Cl)cc2Cl)Sc2ccccc2N1
inactive: [11] 101 % of control | [12] 102 % of control | [13] 98 % of control

C1=CC(=C(C2CCC(Nc3ccccc3)CC2)C2CCC(Nc3ccccc3)CC2)C=CC1=Nc1ccccc1 (stereo not given)
inactive: [6] 100 % of control | [7] 109 % of control | [8] 109 % of control

Clc1[nH]nc2ccccc12
inactive: dose: 6.25 mg/kg/injection, schedule: Q01DX009 (ip), vehicle: saline with Tween-80 95 % of control | dose: 12.5 mg/kg/injection, schedule: Q01DX009 (ip), vehicle: saline with Tween-80 100 % of control | dose: 12.5 mg/kg/injection, schedule: Q04DX003 (ip), vehicle: saline with Tween-80 100 % of control | dose: 25.0 mg/kg/injection, schedule: Q01DX009 (ip), vehicle: saline with Tween-80 86 % of control | dose: 25.0 mg/kg/injection, schedule: Q04DX003 (ip), vehicle: saline with Tween-80 100 % of control | dose: 50.0 mg/kg/injection, schedule: Q04DX003 (ip), vehicle: saline with Tween-80 100 % of control

CCOC(=O)c1cnc2cc3c(cc2c1Nc1ccccc1C(=O)OC)OCO3
inactive: dose: 50.0 mg/kg/injection, schedule: Q04DX002 (ip), vehicle: Klucel (hydroxypropylcellulose) (HPC) 101 % of control | dose: 100.0 mg/kg/injection, schedule: Q04DX002 (ip), vehicle: Klucel (hydroxypropylcellulose) (HPC) 101 % of control | dose: 200.0 mg/kg/injection, schedule: Q04DX002 (ip), vehicle: Klucel (hydroxypropylcellulose) (HPC) 97 % of control

COCCn1c(N)c(C(=S)Nc2ccccc2)c(=O)[nH]c1=O
inactive: [4] 101 % of control | [5] 104 % of control | dose: 200.0 mg/kg/injection, schedule: Q01DX009 (ip), vehicle: saline 105 % of control

COc1cc(O)c(/C=N/NC(=S)NC23CC4CC(CC(C4)C2)C3)c(OC)c1
inactive: dose: 7.5 mg/kg/injection, schedule: Q01DX005 (ip), vehicle: saline with Tween-80 105 % of control | dose: 15.0 mg/kg/injection, schedule: Q01DX005 (ip), vehicle: saline with Tween-80 101 % of control and 103 % of control | [1] 93 % of control

C(=C\c1csnn1)/c1ccc(/C=C/c2csnn2)cc1
inactive: [1] 100 % of control | [2] 100 % of control | [3] 100 % of control

O=C(Cc1nc2ccccc2nc1CC(=O)c1ccncc1)c1ccncc1
inactive: dose: 6.25 mg/kg/injection, schedule: Q01DX005 (ip), vehicle: saline with Tween-80 102 % of control | dose: 12.5 mg/kg/injection, schedule: Q01DX005 (ip), vehicle: saline with Tween-80 90 % of control | [1] 93 % of control | [3] 98 % of control

— PubChem BioAssay AID330 (DTP/NCI, 2004)
